{"source": "patent US11324720B2", "about": "“Antiproliferative DNA polymerase inhibitor” (NEW YORK MEDICAL COLLEGE, priority 2018, dated 2022)", "key": {"[1]": {"system": "R-BxPC-3 cells", "test": "Cell proliferation assay, MTT method", "assay_type": "cell-based, human", "conditions": "R-BxPC-3 (cisplatin resistant)", "description": "DNA replication precedes cell division. Thus, cancer cells cannot divide and proliferate without successful chromosomal duplication. A DNA polymerase inhibitor should inhibit cancer cell proliferation. We characterized the antiproliferative properties of zelpolib on a number of cell lines originated from pancreatic cancer (BxPC-3) and breast cancer (MCF7 for ER+ breast cancer). In addition, we developed a cisplatin resistant subline of a pancreatic cancer cell line, R-BxPC3 for our studies as well. We used the MTT method^25 for analyzing cell proliferation. This assay is based on the reduction of 3-(4,5-dimethylthiazol-2-yl)-2,5-diphenyltetrazolium bromide by live cells to an insoluble formazon, which were subsequently dissolved in DMSO and quantified by UV absorbance. Therefore, the cell number is proportional to the optical density in the established linear region. […] The plateau phenomena indicate inhibition of proliferation without cell killing, similar to these observed from hydroxyurea^26, aphidicolin^27, and to a certain extent, methotrexate treatments^28. […]\nHuman cancer cells (5×10^3-7.5×10^3) were initially seeded in 96-well plates (Cellstar) containing 0.2 ml media per well. […] Formazan crystals were then dissolved in 150 μl DMSO and optical density was read at 490 nm^25. […] Results were analyzed by GraphPad Prism. […]"}, "[2]": {"target": "T1, Pol δ (Homo sapiens, UniProt P28340)", "T1 construct": "made in house; host or cells: insect cells (Pol δ); E. coli (PCNA)", "T1 sequence (P28340 whole entry)": "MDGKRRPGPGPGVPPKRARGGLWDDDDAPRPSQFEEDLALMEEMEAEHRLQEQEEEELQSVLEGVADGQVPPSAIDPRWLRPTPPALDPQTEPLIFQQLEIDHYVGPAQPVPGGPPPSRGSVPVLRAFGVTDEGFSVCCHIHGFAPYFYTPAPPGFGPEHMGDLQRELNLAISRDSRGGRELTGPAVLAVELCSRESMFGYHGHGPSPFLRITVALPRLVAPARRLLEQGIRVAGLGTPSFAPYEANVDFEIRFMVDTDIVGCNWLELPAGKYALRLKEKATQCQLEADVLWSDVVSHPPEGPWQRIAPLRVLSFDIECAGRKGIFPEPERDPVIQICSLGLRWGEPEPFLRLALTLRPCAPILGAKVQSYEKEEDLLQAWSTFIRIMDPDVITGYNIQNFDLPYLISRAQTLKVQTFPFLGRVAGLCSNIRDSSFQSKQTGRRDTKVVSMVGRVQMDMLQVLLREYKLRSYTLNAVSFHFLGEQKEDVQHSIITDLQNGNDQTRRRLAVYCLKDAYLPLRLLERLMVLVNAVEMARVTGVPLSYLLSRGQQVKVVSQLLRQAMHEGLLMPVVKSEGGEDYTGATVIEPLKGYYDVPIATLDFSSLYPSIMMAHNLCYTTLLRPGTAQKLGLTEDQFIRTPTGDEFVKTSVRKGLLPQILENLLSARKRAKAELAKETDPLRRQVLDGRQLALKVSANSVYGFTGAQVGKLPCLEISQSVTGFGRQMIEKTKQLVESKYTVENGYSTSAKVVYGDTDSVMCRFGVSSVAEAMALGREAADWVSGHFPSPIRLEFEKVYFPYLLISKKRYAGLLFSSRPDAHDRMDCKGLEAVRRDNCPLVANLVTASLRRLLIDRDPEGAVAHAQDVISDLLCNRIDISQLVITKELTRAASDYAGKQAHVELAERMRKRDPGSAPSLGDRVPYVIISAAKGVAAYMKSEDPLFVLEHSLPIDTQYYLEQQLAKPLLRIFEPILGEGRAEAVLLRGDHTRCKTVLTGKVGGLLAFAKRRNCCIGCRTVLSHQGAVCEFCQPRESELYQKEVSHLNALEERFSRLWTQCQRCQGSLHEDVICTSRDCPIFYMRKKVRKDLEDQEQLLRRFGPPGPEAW", "T1 sequence (P49005 whole entry partner)": "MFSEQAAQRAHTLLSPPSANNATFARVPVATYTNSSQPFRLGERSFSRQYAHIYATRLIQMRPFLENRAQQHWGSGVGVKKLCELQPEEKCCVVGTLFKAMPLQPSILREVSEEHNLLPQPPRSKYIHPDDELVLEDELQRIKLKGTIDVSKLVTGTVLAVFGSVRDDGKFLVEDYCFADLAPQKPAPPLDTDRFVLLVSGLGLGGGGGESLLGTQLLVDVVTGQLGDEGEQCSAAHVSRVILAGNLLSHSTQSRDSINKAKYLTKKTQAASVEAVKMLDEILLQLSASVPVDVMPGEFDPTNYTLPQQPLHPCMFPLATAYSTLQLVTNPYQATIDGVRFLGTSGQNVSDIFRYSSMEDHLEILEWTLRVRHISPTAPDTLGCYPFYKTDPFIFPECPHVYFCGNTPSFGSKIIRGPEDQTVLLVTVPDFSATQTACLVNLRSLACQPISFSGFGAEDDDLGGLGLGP", "T1 sequence (Q15054 whole entry partner)": "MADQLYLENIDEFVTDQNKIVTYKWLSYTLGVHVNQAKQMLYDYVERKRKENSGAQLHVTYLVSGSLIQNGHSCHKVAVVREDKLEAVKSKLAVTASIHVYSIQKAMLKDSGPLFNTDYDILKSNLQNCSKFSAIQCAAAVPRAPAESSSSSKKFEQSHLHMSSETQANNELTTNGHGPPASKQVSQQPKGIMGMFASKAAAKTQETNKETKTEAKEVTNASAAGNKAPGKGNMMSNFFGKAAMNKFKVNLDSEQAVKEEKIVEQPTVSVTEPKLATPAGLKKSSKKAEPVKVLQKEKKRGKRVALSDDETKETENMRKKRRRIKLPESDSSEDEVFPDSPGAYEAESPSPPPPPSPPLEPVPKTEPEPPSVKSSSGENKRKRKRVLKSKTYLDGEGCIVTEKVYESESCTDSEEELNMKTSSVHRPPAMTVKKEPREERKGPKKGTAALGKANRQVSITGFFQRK", "T1 sequence (P12004 whole entry partner)": "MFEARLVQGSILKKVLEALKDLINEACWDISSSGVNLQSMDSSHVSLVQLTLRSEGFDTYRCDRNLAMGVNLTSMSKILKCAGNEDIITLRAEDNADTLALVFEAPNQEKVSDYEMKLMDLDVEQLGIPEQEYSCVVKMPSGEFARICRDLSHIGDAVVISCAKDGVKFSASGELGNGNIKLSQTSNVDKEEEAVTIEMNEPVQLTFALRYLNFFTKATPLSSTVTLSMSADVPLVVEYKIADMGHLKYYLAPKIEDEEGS", "test": "primer extension assay (25 mer primer/40 mer template)", "assay_type": "biochemical", "conditions": "20 μM inhibitor", "description": "Next, we investigated the inhibitory properties of zelpolib in a primer extension assay^17,18 with a template that consists of all four deoxynucleotide that is more reflective of cellular DNA replication processes than the pold(A) template. The substrate consisted of a 25 mer primer hybridized to a 40 mer template. In the presence of PCNA and dNTPs, the primers were extended upon addition of Pol δ and a full extension would generate a 40 mer copy of the template. The primers were labeled at the 5′-end with ^32P, and the products were separated on a sequencing gel for visualization and quantification. […] The idea originated from the fact that most kinase inhibitors compete for binding with ATP. It is conceivable that they might compete with dATP for binding to polymerases. We randomly selected 10 small-molecule-cancer drugs with nine being kinase inhibitors^19 and one parp inhibitor (olaparib)^20. […] In the presence of any other inhibitors, at least 30% of the primers were extended.\nRecombinant Pol […] were expressed in insect cells and purified as reported previously^18. […]\nBriefly, the standard reaction mixture contained 5 μM dNTP, 5 mM MgCl2, 50 mM Tris-HCl (pH 7.5), 2 mM dithiothreitol, […] BSA, 50 mM NaCl, 20 nM primer/template, 50 nM PCNA, 10 nM Pol δ and variable concentrations of inhibitors. […] Products was visualized on phosphorimager and quantitated using Image-J software. […]"}, "[3]": {"system": "BxPC-3 cells", "test": "Cell proliferation assay, MTT method", "assay_type": "cell-based, human", "description": "(§1) DNA replication precedes cell division. Thus, cancer cells cannot divide and proliferate without successful chromosomal duplication. A DNA polymerase inhibitor should inhibit cancer cell proliferation. We characterized the antiproliferative properties of zelpolib on a number of cell lines originated from pancreatic cancer (BxPC-3) and breast cancer (MCF7 for ER+ breast cancer). In addition, we developed a cisplatin resistant subline of a pancreatic cancer cell line, R-BxPC3 for our studies as well. We used the MTT method^25 for analyzing cell proliferation. This assay is based on the reduction of 3-(4,5-dimethylthiazol-2-yl)-2,5-diphenyltetrazolium bromide by live cells to an insoluble formazon, which were subsequently dissolved in DMSO and quantified by UV absorbance. Therefore, the cell number is proportional to the optical density in the established linear region. […] The plateau phenomena indicate inhibition of proliferation without cell killing, similar to these observed from hydroxyurea^26, aphidicolin^27, and to a certain extent, methotrexate treatments^28. Direct inhibition of DNA polymerase activity provides a unique mechanism that is not employed by any of the current cancer therapeutics. We selected a number of most widely prescribed chemotherapeutics with distinct mechanisms to compare their antiproliferative potential in the 2 cancer cell lines. We included alkylating agent cisplatin, antimetabolites methotrexate and 5-flourouracil (5FU)^29-31. […] Whereas the comparison with cisplatin is biphasic.\n(§2) Human cancer cells (5×10^3-7.5×10^3) were initially seeded in 96-well plates (Cellstar) containing 0.2 ml media per well. After 24 hrs, these cells were treated with variable concentrations drug combinations for 48-72 hrs. Subsequently, 4,5-dimethylthiazol-2-yl-2,5-diphenyltetrazolium bromide (MTT) (20 μl of 5 mg/ml) was added to each well for 3 hrs. Formazan crystals were then dissolved in 150 μl DMSO and optical density was read at 490 nm^25. All experiments were performed in triplicates. Results were analyzed by GraphPad Prism. Data represent mean value±SEM for each concentration of inhibitor combinations."}, "[4]": {"system": "MCF7 cells", "test": "Cell proliferation assay, MTT method", "assay_type": "cell-based, human", "description": "as §1, §2"}}, "data": [{"smiles": "COC(=O)c1cc(-c2ccccc2)sc1NC(=S)NNC(=O)CCc1ccc(O)c(O)c1", "note": "[zelpolib]", "values": [{"measurement": "concentration at which antiproliferative effect reaches a plateau", "setting": "[1]", "result": "about 5 μM"}, {"measurement": "full-length product (40 mer) formed", "setting": "[2]", "result": "barely detectible"}, {"measurement": "primer unextended", "setting": "[2]", "result": 94, "unit": "%"}, {"measurement": "antiproliferative activity compared with cisplatin", "setting": "[3]; BxPC-3, MTT", "result": "superior to cisplatin up to 10 μM"}, {"measurement": "antiproliferative activity compared with methotrexate and 5-FU", "setting": "[3]; BxPC-3, MTT", "result": "superior to methotrexate and 5-FU at all concentrations"}, {"measurement": "concentration at which antiproliferative effect reaches a plateau", "setting": "[3]; BxPC-3, MTT", "result": "about 5 μM"}, {"measurement": "cytotoxicity", "setting": "[3]; zelpolib alone, cell lines not specified", "result": "minimal cell cytotoxicity"}, {"measurement": "concentration at which antiproliferative effect reaches a plateau", "setting": "[4]", "result": "about 5 μM"}, {"measurement": "antiproliferative activity compared with methotrexate and 5-FU", "setting": "[4]; 72 h", "result": "superior to methotrexate and 5-FU across the concentration range"}, {"measurement": "antiproliferative activity, zelpolib versus cisplatin", "setting": "[4]; 72 h", "result": "at least as effective as cisplatin in inhibiting MCF7 cell growth up to 5 μM"}]}]}
